Measured values as given in paper PMC5470982, “Thymoquinone exerts potent growth-suppressive activity on leukemia through DNA hypermethylation reversal in leukemia cells” (Oncotarget, 2017).
pIC50: −log10 of the molar value.

Biological target: T1, M. SssI (Spiroplasma monobiae, UniProt P15840)
T1 construct: gene sssIM
Test: in vitro DNA methylation assay with biotin/digoxigenin-labelled ds-oligonucleotide, HpaII cleavage and fluorescence readout
Assay type: biochemical

T1 sequence (P15840 whole entry, looked up): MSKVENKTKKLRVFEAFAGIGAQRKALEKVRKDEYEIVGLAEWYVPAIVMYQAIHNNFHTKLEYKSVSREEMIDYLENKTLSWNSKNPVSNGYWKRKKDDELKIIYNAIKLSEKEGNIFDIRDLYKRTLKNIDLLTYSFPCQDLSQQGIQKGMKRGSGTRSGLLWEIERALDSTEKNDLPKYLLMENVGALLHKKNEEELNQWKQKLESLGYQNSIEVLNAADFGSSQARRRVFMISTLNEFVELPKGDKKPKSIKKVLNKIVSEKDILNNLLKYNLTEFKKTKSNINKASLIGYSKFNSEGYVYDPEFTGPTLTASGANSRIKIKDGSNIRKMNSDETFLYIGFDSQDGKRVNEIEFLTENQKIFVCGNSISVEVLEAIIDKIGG

Structure (SMILES): CC1=CC(=O)C(C(C)C)=CC1=O [TQ, thymoquinone]
- pIC50: 7.52
